Series [1] in a line: PGR activity of separated enantiomers (test not specified). The following applies: (R)- versus (S)-enantiomer of compound 146.
Series [2] concerns grape seedlings cultivar (cv.) Gutedel. Put plainly: Plant growth regulation effects on grape seedlings. The following applies: 200 ppm, spray chamber, 8 days at 22° C. and 80% r.h. It is filed as in vivo. On the procedure: Five weeks old grape seedlings cultivar (cv.) Gutedel were treated with the formulated test compound in a spray chamber. After an incubation period of 8 days at 22° C. and 80% relative humidity (r.h.) in a greenhouse, the plant growth regulating effects were assessed.

Another series relates to Botrytis cinerea. Description: Fungal growth inhibition in nutrient broth, microtiter plate, photometric. It is filed as cell-based. The following applies: 200 ppm, 24° C., 72 hours. Here is the method: Botrytis cinerea (Gray mould): Conidia of the fungus from cryogenic storage were directly mixed into nutrient broth (PDB potato dextrose broth). After placing a (DMSO) solution of the test compounds into a microtiter plate (96-well format) the nutrient broth containing the fungal spores was added. The test plates were incubated at 24° C. and the inhibition of growth was determined photometrically after 72 hours. Compound (S)-(146) gave at least 80% control of Botrytis cinerea at 200 ppm.

Another series has as its system Fusarium culmorum. The series is described as above. It is filed as cell-based. The following applies: 200 ppm, 24° C., 48 hours. Here is the method: Fusarium culmorum (root rot): Conidia of the fungus from cryogenic storage were directly mixed into nutrient broth (PDB potato dextrose broth). After placing a (DMSO) solution of the test compounds into a microtiter plate (96-well format) the nutrient broth containing the fungal spores was added. The test plates were incubated at 24° C. and the inhibition of growth was determined photometrically after 48 hours. Compound (S)-(146) gave at least 80% control of Fusarium culmorum at 200 ppm.

The test system of another series is Monographella nivalis. The description is as above. It is filed as cell-based. The following applies: 200 ppm, 24° C., 72 hours, 620 nm. Here is the method: Monographella nivalis (syn. Microdochium nivale, Fusarium nivale), snow mould, foot rot of cereals: Conidia of the fungus from cryogenic storage were directly mixed into nutrient broth (PDB potato dextrose broth). After placing a (DMSO) solution of the test compounds into a microtiter plate (96-well format) the nutrient broth containing the fungal spores was added. The test plates were incubated at 24° C. and the inhibition of growth was determined photometrically after 72 hours at 620 nm. Compound (S)-(146) gave at least 80% control of Monographella nivalis at 200 ppm.

The subject of a further series is Septoria tritici. The series is described as above. It is filed as cell-based. The following applies: 200 ppm, 24° C., 72 hours. Here is the method: Septoria tritici (leaf blotch): Conidia of the fungus from cryogenic storage were directly mixed into nutrient broth (PDB potato dextrose broth). After placing a (DMSO) solution of the test compounds into a microtiter plate (96-well format) the nutrient broth containing the fungal spores was added. The test plates were incubated at 24° C. and the inhibition of growth was determined photometrically after 72 hours. Compound (S)-(146) gave at least 80% control of Septoria tritici at 200 ppm.

The subject of another series is Mycosphaerella arachidis. The series is described as above. It is filed as cell-based, Mycosphaerella arachidis (syn. Cercospora arachidicola). The following applies: 200 ppm, 24° C., 72 hours, 620 nm. Here is the method: Mycosphaerella arachidis (syn. Cercospora arachidicola), Brown leaf spot of groundnut (peanut): Conidia of the fungus from cryogenic storage were directly mixed into nutrient broth (PDB potato dextrose broth). After placing a (DMSO) solution of the test compounds into a microtiter plate (96-well format) the nutrient broth containing the fungal spores was added. The test plates were incubated at 24° C. and the inhibition of growth was determined photometrically after 72 hours at 620 nm. Compound (S)-(146) gave at least 80% control of Mycosphaerella arachidis at 200 ppm.

The subject of a further series is Rhizoctonia solani. Described as above. The following applies: 200 ppm, 24° C., 48 h. It is filed as cell-based. On the procedure:
Rhizoctonia solani (foot rot, damping-off): Mycelial fragments of the fungus, prepared from a fresh liquid culture, were directly mixed into nutrient broth (PDB potato dextrose broth). After placing a (DMSO) solution of the test compounds into a microtiter plate (96-well format) the nutrient broth containing the fungal mycelium was added. The test plates were incubated at 24° C. and the inhibition of growth was determined photometrically after 48 h. Compound (S)-(146) gave at least 80% control of Rhizoctonia solani at 200 ppm.

Series [3] has as its system wheat plants cultivar (cv.). Riband. Description: Plant growth regulation effects on wheat plants. It is filed as in vivo. The following applies: 200 ppm, spray chamber, 8 days at 22° C. and 80% r.h. Here is the method:
Two weeks old wheat plants cultivar (cv.). Riband were treated with the formulated test compound in a spray chamber. After an incubation period of 8 days at 22° C. and 80% relative humidity (r.h.) in a greenhouse, the plant growth regulating effects were assessed.

For another series, the system named is winter wheat. Description: Plant growth effects on cereals: spray at beginning of stem elongation, visual growth reduction. It is filed as in vivo. The following applies: 225 g a.i./ha spray, 28 days after spray, visually evaluated versus untreated control. An excerpt:
(§1) Plants of winter wheat and summer wheat were sprayed at the beginning of stem elongation, three weeks after sowing. Formulated test compounds 144, 145 and 146 were sprayed at 225 g a.i. (active ingredient)/ha, each, top over leaf with a boom sprayer on the plants. After the spray the plants were transferred to a greenhouse and 28 days after the spray the plant growth reduction was visually evaluated versus an untreated control.

The subject of the next series is summer wheat. The series is described as above. The following applies: 225 g a.i./ha spray, 28 days after spray, visually evaluated versus untreated control. It is filed as in vivo.
Text: as §1

For the molecule `O[C@H](c1cccnc1)c1c(-c2ccc(Cl)cc2F)noc1-c1ccc(F)cc1F` (single isomer, unassigned) [Compound 153], in [1], the “PGR activity, enantiomer comparison” value is “majority of PGR activity”. The “plant growth regulating effect (plant height)” value (“plant growth regulating effect” for short) in series [2] is on record as “plant height decreased”.
`O[C@@H](c1cccnc1)c1c(-c2ccc(Cl)cc2F)noc1-c1ccc(F)cc1F` (single isomer, unassigned) [Compound (S)-(146)]: the “control of Botrytis cinerea” value in the series with Botrytis cinerea is recorded as “at least 80%”. In addition, in the series with Fusarium culmorum, the “control of Fusarium culmorum” value was “at least 80%”. The “control of Monographella nivalis” value in the series on Monographella nivalis is “at least 80%”. In addition, the “control of Septoria tritici” value with Septoria tritici was “at least 80%”. Further, the “control of Mycosphaerella arachidis” value with Mycosphaerella arachidis is “at least 80%”. The “control of Rhizoctonia solani” value in the series with Rhizoctonia solani is “at least 80%”.
`OC(c1cncnc1)c1c(-c2ccc(Cl)cc2F)noc1-c1ccc(F)cc1F` (stereo not drawn) [Compound 144]: the “plant growth regulating effect” value in series [3] and in series [2] was “plant height decreased” in each case. For the same molecule, in the series with winter wheat, the “Winter Wheat % reduction (plant growth reduction)” value (“Winter Wheat % reduction” for short) was determined as 7.5%. Besides, in the series with summer wheat, the “Summer Wheat % reduction (plant growth reduction)” value (shortened to “Summer Wheat % reduction”) was 10%.
As for `OC(c1cncnc1)c1c(-c2ccc(Cl)cc2)noc1-c1ccc(F)cc1F` (stereo not drawn) [Compound 145], the “Winter Wheat % reduction” value in the series on winter wheat is given as 5%. The “Summer Wheat % reduction” value in the series with summer wheat is 17.5%. Also, in [2], the “plant growth regulating effect” value is “plant height decreased”.
Broadly, the melting point is the temperature of the solid-liquid transition. Molecule `OC(c1cccnc1)c1c(-c2ccc(Cl)cc2F)noc1-c1ccc(F)cc1F` (stereo not drawn) [Compound 146, 3-(2-Fluoro-4-Chlorophenyl)-5-(2,4-difluorophenyl)-4-[(3-pyridyl)hydroxymethyl]-isoxazole] had a melting point of 138 to 140 °C. Also, the “Winter Wheat % reduction” value with winter wheat is listed as 10%. The “Summer Wheat % reduction” value with summer wheat turned out to be 10%.
For the molecule `OC(c1cncnc1)c1c(-c2ccc(Cl)cc2Cl)noc1-c1ccccc1Cl` (stereo not drawn) [Compound 147, 3-(2,4-Chlorophenyl)-5-(2-Chlorophenyl)-4-[(3-pyrimidyl)hydroxymethyl]-isoxazole], the “plant growth regulating effect” value in series [2] was “plant height decreased”.
Regarding `OC(c1cncnc1)c1c(-c2ccc(Cl)cc2F)noc1-c1ccccc1Cl` (stereo not drawn) [Compound 148, 3-(2-Fluoro-4-Chlorophenyl)-5-(2-Chlorophenyl)-4-[(3-pyrimidyl)hydroxymethyl]-isoxazole], in series [2], the “plant growth regulating effect” value is “plant height decreased”.
On the same count and under the same terms, the result for `COc1ncccc1-c1onc(-c2ccc(Cl)cc2)c1C(O)c1cncnc1` (stereo not drawn) [Compound 149, 3-(4-Chlorophenyl)-5-(2-Methoxypyridine)-4-[(3-pyrimidyl)hydroxymethyl]-isoxazole] reads “plant height decreased”.
Same read-out and setting: the result for `OC(c1cncnc1)c1c(-c2ccc(Cl)cc2)noc1-c1ccc(F)cc1` (stereo not drawn) [Compound 150, 3-(4-Chlorophenyl)-5-(4-Fluorophenyl)-4-[(3-pyrimidyl)hydroxymethyl]-isoxazole] reads “plant height decreased”; that for `OC(c1cncnc1)c1c(-c2ccc(Cl)cc2)noc1-c1ccc(F)cc1F` (stereo not drawn) [Compound 151, 3-(4-Chlorophenyl)-5-(2,4-Fluorophenyl)-4-[(3-pyrimidyl)hydroxymethyl]-isoxazole], “plant height decreased”; that for `OC(c1cccnc1)c1c(-c2ccc(F)cc2F)noc1-c1ccc(F)cc1Cl` (stereo not drawn) [Compound 152, 3-(2,4-Diluoro)-5-(2-Chloro-4-Fluorophenyl)-4-[(3-pyridyl)hydroxymethyl]-isoxazole], “plant height decreased”.

The values are drawn from patent publication US20110251066A1, “ISOXAZOLE DERIVATIVES FOR USE AS PLANT GROWTH REGULATORS” (SYNGENTA CROP PROTECTION LLC, priority 2008, published 2011).
